Assay results published in patent publication US20130018062A1, “Pain therapy with metabolism blocked antifolates” (priority 2011, published 2013).

Key:
[1] = test system: Human HCT-8 Colon Xenograft; assay: Antitumor activity in nude mice bearing human HCT-8 colon xenograft (Example-4); assay type: in vivo; details: i.v. push daily × 5 at maximum tolerated dose (M-Trex 4.0, MTX 1.0 mg/kg/day)
From the text: There are three general accepted methods for the evaluation of Pain in patients suffering from a number of diseases. They are Visual Analog Scale (VAS); Numeric rating Scale (NRS) and Verbal Categorical Rating Scale […]. Of these three assessment methods VAS is considered to be most reliable in a majority of cases to evaluate and quantify the magnitude of the perception of Pain. Clinical trials conducted by Castaneda and Nair used VAS to assess pain intensity in RA patients receiving 10-DAAM in one trial [G. Alarcon, O. Castaneda, W. J. Koopman, C. L. Krumdieck, and M. G. Nair. U.S. Pat. No. 5,030,634 (1991)] and M-Trex (CH-1504) in another trial conducted separately. Almost all cases of cancer Pain is due to tissue inflammation, tissue compression and tissue damage secondary to rapid proliferation of cells. Therefore any therapeutic intervention that shrinks proliferating tissues can bring about significant reduction in Pain. Shown below is the efficacy of M-Trex in shrinking human colon cancer transplanted and growing in nude mice.

[2] = test system: patients with Rheumatoid Arthritis; assay: Morning stiffness and swollen joints in patients with Rheumatoid Arthritis treated with M-Trex (Example-6); assay type: in vivo, human
From the text: MS (Morning Stiffness); S. Joints (Swollen Joints) were remarkably responsive to M-Trex therapy. Stiffness exacerbates Pain especially in joints by virtue of inflexibility and reduction is blood circulation. Swelling of joints is secondary to inflammation caused by autoimmune response in patients with Rheumatoid Arthritis. […] The initial numbers represents the values at the start of the study before the treatment and the remaining four numbers are values determined during each visit while taking M-Trex medication.
In joints stiffness (duration measured in minutes as above) is caused by inflammation of the synovium that lines the joint. Inflammation due to bone spurs as in Oesteo-arthritis causes Pain. Thus reduction of stiffness reduces the severity of inflammation and Pain. Abnormal tissue growth characterized by benign and malignant neoplasms cause stiffness due to compression of tissues, interfering with blood flow and irritation of the autonomic nervous system. Metabolism blocked antifolates are shown to be capable of decompression of tissues by interfering with tissue growth as shown in Examples 4, 5 and 6. These examples establish that metabolism blocked antifolates can decompress cancer tissues and ameliorate cancer pain.

A549/ATCC (NSCLC) = assay: Growth inhibition of human tumor cells in culture (NCI); assay type: cell-based
From the text: (§1) The preceding data collected at the National Cancer Institute summarize the ability of M-Trex to inhibit 50% of the growth of selected tumor cells in culture. The values are expressed as Log10 GI50 values all of which are lower than 10^−8M. In the same table a comparison is made of the respective values of TGI (Total Growth Inhibition) for M-Trex and MTX. […] In addition, the Log10 GI50 values of M-Trex was lower than −8.00 for the following cell lines: NSCLC, A549/ATCC and NCI H23; Colon Cancer, HCT 116, HCT 29 and SW 620; CNS Cancer, SF 268; Melanoma M 14 and UACC 62; Ovarian Cancer, OVCAR-8; Renal Cancer, ACHN, CAKI-1, SN 12C, and UO 31; Prostate Cancer, PC 3 and Breast cancer, MDA-MB-435 and MDA-N. The MG_MID value of MTX for all 49 human tumor cell lines evaluated at NCI-DTP program was −7.05. […] The tumors and sarcomas are solid while leukemia and lymphoma are liquid tumors.

CAKI-1 (Renal Cancer) = assay: as above; assay type: cell-based
From the text: as §1

HCT 29 (Colon Cancer) = assay: as above; assay type: cell-based
From the text: as §1

K562 (Leukemia) = assay: as above; assay type: cell-based; details: logarithmic value
From the text: as §1

M 14 (Melanoma) = assay: as above; assay type: cell-based
From the text: as §1

[3] = test system: MCF7-ADR-RES (Breast Cancer); assay: as above; assay type: cell-based
From the text: as §1

MDA-N (Breast cancer) = assay: as above; assay type: cell-based
From the text: as §1

MOLT-4 (Leukemia) = assay: as above; assay type: cell-based; details: logarithmic value
From the text: as §1

NCI H23 (NSCLC) = assay: as above; assay type: cell-based
From the text: as §1

PC 3 (Prostate Cancer) = assay: as above; assay type: cell-based
From the text: as §1

SF 268 (CNS Cancer) = assay: as above; assay type: cell-based
From the text: as §1

SN 12C (Renal Cancer) = assay: as above; assay type: cell-based
From the text: as §1

SR (Leukemia) = assay: as above; assay type: cell-based; details: logarithmic value
From the text: as §1

SW 620 (Colon Cancer) = assay: as above; assay type: cell-based
From the text: as §1

UACC 62 (Melanoma) = assay: as above; assay type: cell-based
From the text: as §1

UO 31 (Renal Cancer) = assay: as above; assay type: cell-based
From the text: as §1

[4] = first visit while taking M-Trex
[5] = fourth visit while taking M-Trex
[6] = second visit while taking M-Trex
[7] = start of the study before the treatment
[8] = third visit while taking M-Trex

C=C(CC(NC(=O)c1ccc(CCc2ccc3nc(N)nc(N)c3c2)cc1)C(=O)O)C(=O)O (stereo not drawn) [M-Trex, 4′-methylene-5,8-10-trideazaaminopterin]
MTGI, Maximum Tumor Growth Inhibition (% of control) ([1]; nude mice, HCT-8 xenograft): 91.4 ± 2.2%
Tumor doubling time, treated/control (%) ([1]; nude mice, HCT-8 xenograft): 623.08%
TD, Tumor Doubling Time ([1]; control 2.6 ± 0.8 days): 16.2 ± 3.2 days
MS (Morning Stiffness), duration [2, 4]: 26′ minutes
S. Joints (number of Swollen Joints) [2, 4]: 5.6
MS (Morning Stiffness), duration [2, 5]: 14′ minutes
S. Joints (number of Swollen Joints) [2, 5]: 2.9
MS (Morning Stiffness), duration [2, 6]: 22′ minutes
S. Joints (number of Swollen Joints) [2, 6]: 3.5
MS (Morning Stiffness), duration [2, 7]: 99′ minutes
S. Joints (number of Swollen Joints) [2, 7]: 12.5
MS (Morning Stiffness), duration [2, 8]: 20′ minutes
S. Joints (number of Swollen Joints) [2, 8]: 3.0
Log10 GI50 (A549/ATCC (NSCLC)): lower than −8.00
Log10 GI50 (CAKI-1 (Renal Cancer)): lower than −8.00
Log10 GI50 (HCT 29 (Colon Cancer)): lower than −8.00
TGI (Total Growth Inhibition) (K562 (Leukemia)): <−8.00
Log10 GI50 (M 14 (Melanoma)): lower than −8.00
TGI (Total Growth Inhibition) ([3]; logarithmic value): −7.26
Log10 GI50 ([3]; value is Log10 of GI50): <−8.00 M
Log10 GI50 (MDA-N (Breast cancer)): lower than −8.00
TGI (Total Growth Inhibition) (MOLT-4 (Leukemia)): −7.40
Log10 GI50 (NCI H23 (NSCLC)): lower than −8.00
Log10 GI50 (PC 3 (Prostate Cancer)): lower than −8.00
Log10 GI50 (SF 268 (CNS Cancer)): lower than −8.00
Log10 GI50 (SN 12C (Renal Cancer)): lower than −8.00
TGI (Total Growth Inhibition) (SR (Leukemia)): <−8.00
Log10 GI50 (SW 620 (Colon Cancer)): lower than −8.00
Log10 GI50 (UACC 62 (Melanoma)): lower than −8.00
Log10 GI50 (UO 31 (Renal Cancer)): lower than −8.00
